These results are taken from the NIST ThermoML archive (doi:10.1016/j.fluid.2015.07.023).

For data set [1] the following is noted: 298.15 K; 101.33 kPa; Liquid; mechanical oscillator.
Data set [2] in a line: refractive index (Na D-line) (dimensionless). To be noted: 298.15 K; 101.33 kPa; Liquid; Standard Abbe refractometry.

± gives the expanded uncertainty stated by the source.

As a reminder, the mass density is mass per unit of volume. As usually defined, the refractive index is the speed of light in vacuum divided by its phase velocity in the sample. Turning to `CO` [methanol], the mass density in data set [1] amounted to 786.62 ± 0.21 kg/m3. Also, the refractive index in data set [2] is 1.32666 ± 0.00068.

As for `CC(C)OC(C)C` [diisopropyl ether], the mass density in data set [1] is 718.3 ± 0.3 kg/m3. Besides, in data set [2], the refractive index is listed as 1.3653 ± 0.0007.

With `CC(C)O` [propan-2-ol], the mass density in data set [1] is recorded as 782.45 ± 0.21 kg/m3. For the same compound, in data set [2], the refractive index is on record as 1.37522 ± 0.00068.
